Results reported in publication PMC7859449, “Short Chain (≤C4) Esterification Increases Bioavailability of Rosmarinic Acid and Its Potency to Inhibit Vascular Smooth Muscle Cell Proliferation” (Frontiers in Pharmacology, 2021).
Several values for one entry are separate records, joined by “and”; a condition that tells them apart may be missing. Equal entries are not always repeated. Where two headings read alike, the source gives them in different places. Blank lines part the entries; values can stand above or below the compound they belong to.

How the values were obtained:
[1] = test system: PDGF-BB-induced VSMC proliferation; assay: Proliferation assay (resazurin conversion) in PDGF-BB-stimulated VSMC; assay type: cell-based, rat; conditions: for activity at 10 µM / IC50: Rattus norvegicus, resazurin; for activity at 10 µM: VSMC, 10 μmol/L, PDGF-BB 20 ng/mL 48 h, read-out: VSMC proliferation at 10 μmol/L (relative to vehicle control, RU); for IC50: PDGF-BB-induced VSMC proliferation
Experimental: Primary VSMC were cultivated in DMEM-F12 (1:1) supplemented with 20% fetal bovine serum, 30 μg/ml gentamicin, and 15 ng/mL amphotericin B at 37°C in an incubator with 5% CO2 flow in a humidified atmosphere. Passages 4 to 12 were used in experiments.
Resazurin conversion to fluorescent resorufin was used as a measure for cell proliferation. Primary VSMC were seeded at 5 × 10^3 cells/well in a 96-well plate to grow for the next 24 h. Cells were then synchronized into G0 phase by serum deprivation for 24 h, pretreated with compounds for 30 min and stimulated with 20 ng/mL PDGF-BB for the next 48 h. After one washing step, cells were incubated in starvation medium containing 10 μg/mL resazurin for 2 h, and changes in fluorescence were monitored in a Tecan Spark (Tecan Group, Männedorf, Switzerland) plate reader at an excitation wavelength of 535 nm and an emission wavelength of 580 nm.

[2] = Stability of RA QC samples under different storage conditions; assay type: physicochemical, rat
[3] = parameters: method as in earlier work; conditions: rats and humans; ref Nakazawa and Ohsawa, 1998; Baba et al., 2005; Wang et al., 2017; cited from earlier work
[4] = parameters: method as in Nakazawa and Ohsawa, 1998; conditions: rat; ref Nakazawa and Ohsawa, 1998; cited from earlier work
[5] = parameters: method as in Baba et al., 2005; conditions: human; ref Baba et al., 2005; cited from earlier work
VSMC = assay: Cytotoxicity assay (LDH release) in PDGF-induced VSMC; assay type: cell-based; conditions: PDGF-BB 24 h
Experimental: Increased lactate dehydrogenase (LDH) release is an indicator for the loss of cell membrane integrity, associated with cell death. Determination of LDH release in response to increasing concentrations of RAME (7), RAET (8), RABU (9), RAOCT (10) and RADOD (11) was performed as previously described ([Liu et al., 2018]).
FIGURE 4 Cytotoxicity of RA esters in PDGF-induced VSMC. VSMC were pretreated with 0.1% DMSO or increasing concentrations of RA esters as indicated for 30 min, stimulated with 20 ng/mL PDGF-BB for 24 h, and released LDH was determined. Digitonin (80 μmol/L) was used as a positive control. Graphs show means ± SD out of 3 (RAME, RAET and RABU) and 4 (RAOCT and RADOD) independent experiments (n.s., not significant, p > 0.05, **p < 0.01, ***p < 0.001, ANOVA/Bonferroni, “vehicle with PDGF-BB” vs. “RA ester with PDGF-BB”).

PDGF-BB-induced VSMC = assay: Cell cycle analysis (PI staining, flow cytometry); assay type: cell-based, rat; conditions: 3 μmol/L, PDGF-BB 16 h
Experimental: Flow cytometry was used to analyze cell cycle progression. VSMC were seeded at a density of 10^5 cells per well in 12-well plates. After rendered quiescent, cells were treated with increasing concentrations of RAME (7), RAET (8), RABU (9) and RAOCT (10) or with 0.1% DMSO for 30 min followed by stimulation with 20 ng/mL PDGF-BB for 16 h. Cells were collected by trypsinization, washed and resuspended in a hypotonic propidium iodide (PI) solution containing 0.1% (v/v) Triton X-100, 0.1% (w/v) sodium citrate, and 50 μg/mL PI. PI-stained nuclei were analyzed on a FACSCalibur (BD Biosciences, Vienna, Austria) flow cytometer at an excitation wavelength of 488 nm and an emission wavelength of 585 nm.
FIGURE 5 Ethyl, butyl and octyl esters of rosmarinic acid (RA) inhibit the proliferation of VSMC by exerting the same mechanism of action as the methyl ester (A) Quiescent VSMC were treated with 0.1% DMSO or increasing concentrations of RA esters as indicated for 30 min, stimulated with 20 ng/mL PDGF-BB for 16 h and the cell cycle progression was analyzed using PI staining and flow cytometry. […]

cultured VSMC = assay: Intracellular bioavailability of RA esters (LC-MS/MS of cytoplasmic fractions); assay type: in vitro ADME, rat; conditions: for intracellular concentration as share of applied concentration: 10 μmol/L applied; for intracellular content normalized to protein: at 8.5 h; for intracellularly accumulated concentration: after 0.5 h exposure to 10 μmol/L; for intracellular level relative to those of RAME and RAET: exposure to 10 μmol/L
Experimental: After cells had been lysed and membranes had been removed by centrifugation, as described in the previous section, half of the cytoplasmic fractions were collected in 1.5 mL eppendorf tubes, diluted with methanol in 1:3 ratios and centrifuged at 5,600 × g for 20 min to remove proteins. Supernatants were then subjected to LC-MS/MS analysis to determine the cytoplasmic concentrations of RA esters at each treatment time point up to 16 h PDGF-BB stimulation. Cell culture media were also collected prior to the lysis procedure, diluted with methanol in a manner described above and subjected to LC-MS/MS. […] Intracellular concentrations of RA esters were normalized to protein concentrations at each treatment time point. Details of the quantification method are shown in the Supplementary Material.
FIGURE 6 Esters of rosmarinic acid with longer alkyl groups show increased intracellular bioavailability.

CDK2 = test system: CDK2; parameters: method as in Liu et al., 2018; conditions: CDK2 kinase activity in vitro; ref Liu et al., 2018; cited from earlier work
CDK4 = test system: CDK4; parameters: method as in Liu et al., 2018; conditions: ref Liu et al., 2018; cited from earlier work
[6] = Long-term stability (15 d at -20°C), nominal 2 ng/mL
[7] = Long-term stability (15 d at -20°C), nominal 800 ng/mL
[8] = Post-preparative stability (8 h at 4°C), nominal 2 ng/mL
[9] = Post-preparative stability (8 h at 4°C), nominal 800 ng/mL
[10] = Short-term stability (8 h at room temperature), nominal 2 ng/mL
[11] = Short-term stability (8 h at room temperature), nominal 800 ng/mL
[12] = Stock Solution Stability (8 h at room temperature), nominal 2 ng/mL
[13] = Stock Solution Stability (8 h at room temperature), nominal 800 ng/mL

Structure (SMILES): O=C(O)/C=C/c1cccc(O)c1 [Compound 3, m-coumaric acid, reference compound]
- activity at 10 µM [1]: 107 ± 15.2%

Structure (SMILES): COc1cc(/C=C/C(=O)O)ccc1O [Compound 4, ferulic acid, reference compound]
- activity at 10 µM [1]: 107 ± 17.3%

Structure (SMILES): O=C(O)CCc1cccc(O)c1 [Compound 5, m-hydroxyphenylpropionic acid, reference compound]
- activity at 10 µM [1]: 120 ± 27.8%

- Measured Concentration ([2]; Freeze-thaw stability (three cycles), nominal 2 ng/mL): 2.14 ± 0.09 ng/mL
- Measured Concentration ([2]; Freeze-thaw stability (three cycles), nominal 800 ng/mL): 786.67 ± 50.06 ng/mL
- Measured Concentration [2, 6]: 2.18 ± 0.09 ng/mL
- RE [2, 6]: 8.83%
- Measured Concentration [2, 7]: 770.67 ± 50.01 ng/mL
- RE [2, 7]: -3.67%
- Measured Concentration [2, 8]: 1.88 ± 0.13 ng/mL
- RE [2, 8]: -5.83%
- Measured Concentration [2, 9]: 737.00 ± 8.00 ng/mL
- RE [2, 9]: -7.88%
- Measured Concentration [2, 10]: 1.79 ± 0.07 ng/mL
- RE [2, 10]: -10.67%
- Measured Concentration [2, 11]: 762.33 ± 27.75 ng/mL
- RE [2, 11]: -4.71%
- Measured Concentration [2, 12]: 1.90 ± 0.08 ng/mL
- RE [2, 12]: -4.83%
- Measured Concentration [2, 13]: 782.33 ± 27.43 ng/mL
- RE [2, 13]: -2.21%
Structure (SMILES): O=C(/C=C/c1ccc(O)c(O)c1)O[C@H](Cc1ccc(O)c(O)c1)C(=O)O [RA (6), Rosmarinic acid]
- activity at 10 µM [1]: 78.1 ± 16.7%
- amount of orally ingested RA absorbed [3]: up to 1.69%
- cumulative proportions of all RA metabolites detected in urine (of the administered dose) [4]: about 32%
- cumulative proportions of all RA metabolites detected in urine (of the administered dose) [5]: ~6%

Structure (SMILES): CCCCOC(=O)[C@@H](Cc1ccc(O)c(O)c1)OC(=O)/C=C/c1ccc(O)c(O)c1 [RABU (9), rosmarinic acid butyl ester]
- activity at 10 µM [1]: 30.8 ± 5.2%
- IC50 [1]: 2.84 µM
- cell death (LDH release) (VSMC; up to 30 μmol/L): did not induce cell death
- percentage of cells in G0/G1 compared to vehicle control (PDGF-BB-induced VSMC): significantly higher percentage of cells in G0/G1
- intracellular concentration as share of applied concentration (cultured VSMC): 60%
- intracellular content normalized to protein (cultured VSMC; 10 μmol/L): around 2 pmol per µg of protein
- intracellularly accumulated concentration (cultured VSMC): about 6 μmol/L
- intracellular level relative to those of RAME and RAET (cultured VSMC): ~3 fold

Structure (SMILES): CCCCCCCCCCCCOC(=O)[C@@H](Cc1ccc(O)c(O)c1)OC(=O)/C=C/c1ccc(O)c(O)c1 [RADOD (11), rosmarinic acid dodecyl ester]
- VSMC proliferation ([1]; 1 μmol/L (data not shown)): unaffected
- VSMC proliferation ([1]; 3 μmol/L (data not shown)): completely abrogated
- activity at 10 µM [1]: 5.4 ± 8.1%
- cell death (LDH release) (VSMC; 30 μmol/L): comparable to that of the positive control, digitonin

Structure (SMILES): CCOC(=O)[C@@H](Cc1ccc(O)c(O)c1)OC(=O)/C=C/c1ccc(O)c(O)c1 [RAET (8), rosmarinic acid ethyl ester]
- activity at 10 µM [1]: 32.8 ± 8.1%
- IC50 [1]: 3.37 µM
- cell death (LDH release) (VSMC; up to 30 μmol/L): did not induce cell death
- intracellular concentration as share of applied concentration (cultured VSMC): about 20%
- intracellular content normalized to protein (cultured VSMC; 10 μmol/L): around 2 pmol per µg of protein

Structure (SMILES): COC(=O)[C@@H](Cc1ccc(O)c(O)c1)OC(=O)C=Cc1ccc(O)c(O)c1 [RAME (7), rosmarinic acid methyl ester]
- activity at 10 µM [1]: 41.5 ± 10.9%
- IC50 [1]: 7.9 µM
- cell death (LDH release) (VSMC; up to 30 μmol/L): did not induce cell death
- intracellular concentration as share of applied concentration (cultured VSMC): about 20%
- intracellular content normalized to protein (cultured VSMC; 10 μmol/L): around 2 pmol per µg of protein
- IC50 (CDK2): 11.4 µM
- activity of CDK4 (CDK4): affected only at much higher concentrations

Structure (SMILES): CCCCCCCCOC(=O)[C@@H](Cc1ccc(O)c(O)c1)OC(=O)/C=C/c1ccc(O)c(O)c1 [RAOCT (10), rosmarinic acid octyl ester]
- activity at 10 µM [1]: 33.8 ± 14.7%
- IC50 [1]: 2.22 µM
- cell death (LDH release) (VSMC; 30 μmol/L): marked but not significant increase in LDH production
- LDH release (VSMC; 3 and 10 μmol/L): distinct LDH release, which however did not reach significance
- percentage of cells in G0/G1 compared to vehicle control (PDGF-BB-induced VSMC): significantly higher percentage of cells in G0/G1
- concentration within VSMC (cultured VSMC; 10 μmol/L, 16.5 h time point): remained relatively high
- intracellularly accumulated concentration (cultured VSMC): about 6 μmol/L
- intracellular level relative to those of RAME and RAET (cultured VSMC): ~3 fold and ~4 fold
